Data set [1] in a line: Toxicity in erythrocytes (unknown origin) assessed as hemolytic activity. Format: cell-based. Conditions: erythrocyte.
In another data set the test system is Candida albicans. Kind of data set: Antifungal activity against Candida albicans after 48 hrs by broth microdilution method. Type of data set: functional.

The source of these data is ChEMBL document CHEMBL3297673, “Antifungal amphidinol 18 and its 7-sulfate derivative from the marine dinoflagellate Amphidinium carterae” (J Nat Prod, 2014).

≈ marks a conversion by molar mass, not a printed value. Calls of active or inactive are those of the source. The rule behind the calls is not given here.

As to `C=C/C=C/CC/C=C/C=C/C=C/CC/C=C/[C@H](O)[C@H](O)[C@@H]1O[C@@H]([C@H](O)[C@H](O)C(=C)CC[C@@H](O)[C@H]2C[C@@H](O)[C@@H](O)[C@H]([C@@H](O)[C@H](O)/C=C(\C)CCC(O)CC(O)C(O)C(C)CC(O)C(O)CC(C)CCC(O)CC(=O)CC(O)CCCC(O)CCCCC(O)CO)O2)C[C@@H](O)[C@H]1O` (some centres undefined), in data set [1], the Activity entry is reported as “Toxic”. Moreover, in the data set with Candida albicans, the MIC – broadly, the lowest concentration found to suppress growth – stood at 9 µg/mL (≈ 6.62 µM).

With `C=C/C=C/CC/C=C/C=C/C=C/CC/C=C/[C@H](O)[C@H](O)[C@@H]1O[C@@H]([C@H](O)[C@H](O)C(=C)CC[C@@H](O)[C@H]2C[C@@H](O)[C@@H](O)[C@H]([C@@H](O)[C@H](O)/C=C(\C)CCC(O)CC(O)C(O)C(C)CC(O)C(O)CC(C)CCC(O)CC(=O)CC(O)CCCC(CCCCC(O)CO)OS(=O)(=O)[O-])O2)C[C@@H](O)[C@H]1O.[Na+]` (some centres undefined), the Activity entry in data set [1] is given as “Toxic”. The outcome in the data set on Candida albicans was inactive.
